Measurements taken from US11400106B2, “Methods for inhibiting microbe growth” (priority 2018, dated 2022).

What was measured:
Saccharomyces cerevisiae = experiment: MIC of pentamidine against Saccharomyces cerevisiae in YPD medium; format: cell-based
Experimental: Plates were incubated 24 hours and optical density read at 600 nm

A. baumannii [1] = experiment: Superficial skin infection model, tape-stripped mice, A. baumannii; format: in vivo, Acinetobacter baumannii; conditions: 0.5% pentamidine topical, tissue collected 25 hr post-infection
Experimental: (§1) In this model, an infection is established by disrupting the skin barrier through partial removal of the epidermal layer by stripping with adhesive tape and with subsequent application of the pathogen. Tape-stripped mice infected with 4×10^6 CFU/mL A. baumannii (FIG. 4A) or 4×10^6 CFU/mL methicillin-resistant Staphylococcus aureus (MRSA) USA-300 (FIG. 4B). […] This treatment regime was also conducted for the Vehicle (1.9% Boric Acid, pH 7) as a control (n=4). Tissue samples were collected at 25 hr post-infection (FIG. 4A) and 28 hr post-infection (FIG. 4B). […] (FIG. 5).

A. baumannii [2] = experiment: Murine model of systemic A. baumannii infection; format: in vivo, Acinetobacter baumannii; conditions: mice
Experimental: Mice were treated two-hours post-infection to allow complete organ occupancy by the injected cells.

E. coli MC1061 = experiment: Membrane potential dissipation, DiSC3(5) fluorescence spectroscopy; format: cell-based, Escherichia coli; conditions: E. coli grown in standard growth media or supplemented with 25 mM sodium bicarbonate; compound at MIC
Experimental: E. coli MC1061 cells were washed twice and suspended in a buffer containing 20 mM glucose and 5 mM HEPES (pH 7.2). Final resuspension was diluted to an optical density at 600 nm of 0.085. DiSC3(5) was added at a final concentration of 1 and the dye was left to stabilize (1 hr at 37° C.). Compounds were then injected at concentrations equivalent to their MIC. Fluorescent traces were measured in a fluorimeter (Photon Technology International) at the excitation and emission wavelengths of 622 and 660 nm, respectively.
Briefly, due to the potential gradient, the dye is taken up by bacteria and accumulation in the membrane leads to a decrease in fluorescence intensity due to self-quenching. A subsequent increase in fluorescence intensity is observed only if the dye is displaced into the solution as a result of dissipation of the membrane potential.

[3] = test system: methicillin-resistant Staphylococcus aureus (MRSA) USA-300; experiment: Superficial skin infection model, tape-stripped mice, MRSA USA-300; format: in vivo
Experimental: as §1

E. coli = experiment: Checkerboard microdilution with sodium bicarbonate against E. coli; format: cell-based, Escherichia coli
Experimental: In the following experiments, bacterial cells were cultured in 96-well microtiter plates in cation-adjusted Mueller-Hinton Broth (MHB) for 18 h at 37° C. The main strains used were E. coli (K-12 BW25113) (placed in stationary incubator) and S. aureus (Newman Strain) (incubated at 250 r.p.m). Knockout strains (ΔtolcC and ΔychM) were used from the Keio knockout collection (Baba et al., Construction of Escherichia coli K-12 in-frame, single-gene knockout mutants: the Keio collection. Mol Syst Biol 2, 2006 0008, doi:10.1038/msb4100050 (2006)). For MIC determination and checkerboard analyses, Clinical & Laboratory Standards Institute (CLSI) protocol was used. […] DiSC3 loading of S. aureus cells was performed as previously described (Farha et al., Collapsing the proton motive force to identify synergistic combinations against Staphylococcus aureus. Chemistry & biology 20, 1168-1178, doi:10.1016/j.chembiol.2013.07.006 (2013)). CCCP concentration of 20 μM was used. pH adjustments were made by addition of HCl or NaOH. INT assay and ATP bioluminescence assays were performed as previously described (Farha et al., Collapsing the proton motive force to identify synergistic combinations against Staphylococcus aureus. Chemistry & biology 20, 1168-1178, doi:10.1016/j.chembiol.2013.07.006 (2013)). For chemical-genomic studies, the Keio library was grown overnight in cation-adjusted MHB broth, in 384-well plates. From these, treatment plates (25 mM sodium bicarbonate, or a sterile water control) were inoculated and grown for 15 hours at 37° C., in a stationary incubator. Data was normalized according to Mangat et al (Mangat et al., Rank ordering plate data facilitates data visualization and normalization in high-throughput screening. J Biomol Screen 19, 1314-1320, doi:10.1177/1087057114534298 (2014)), with gene products and GO terms mined from EcoCyc. The GFP promoter library (Keseler et al., EcoCyc: fusing model organism databases with systems biology. Nucleic Acids Res 41, D605-612, doi:10.1093/nar/gks1027 (2013)) was grown for 18 hours at ambient temperature with the same inoculation strategy as with the Keio collection. The analysis pipeline of Zaslaver et al (Zaslaver et al., A comprehensive library of fluorescent transcriptional reporters for Escherichia coli. Nat Methods 3, 623-628, doi:10.1038/nmeth895 (2006)) was used to generate maps of promoter activity, from which lists of promoters with increased or decreased activity were compiled.
The effect of sodium bicarbonate on the activity of various antibacterial agents was investigated. Clinical isolates of various bacteria were obtained from the American Type Culture Collection (“ATCC”) and the International Health Management Associates (“IHMA”). Fractional inhibitory concentration indices (FICIs) were determined by setting up standard checkerboard broth microdilution assays in 96-well microtiter plates with serially diluted 8 (or 10) concentrations of each drug (sodium bicarbonate and the antibacterial agent). The protocol for checkerboard analyses was based on the CLSI guidelines. Plates were incubated at 37° C. for 18 hours, and optical density was read at 600 nm. At least 3 replicates were done for each query compound.
The FIC index (FICI) is the sum of the two FICs. Chemical-chemical interactions with ΣFIC of less or equal to 0.5 were deemed synergistic.
As validation, three of the antibiotic agents were further tested with checkerboard analyses. Checkerboard broth microdilution assays were set up in 96-well microtiter plates with serially diluted 8 (or 10) concentrations of each compound (sodium bicarbonate and the antibiotic). The protocol for checkerboard analyses was based on the CLSI guidelines. Plates were incubated at 37° C. for 18 hours, and optical density was read at 600 nm. At least 3 replicates were done for each query compound.

Molecule `N=C(N)c1ccc(OCCCCCOc2ccc(C(=N)N)cc2)cc1` [pentamidine] has an MIC (Saccharomyces cerevisiae; 25 mM sodium bicarbonate) of 4 µg/mL, an MIC (Saccharomyces cerevisiae; 50 mM sodium bicarbonate) of 2 µg/mL and an MIC (Saccharomyces cerevisiae; no sodium bicarbonate) of 256 µg/mL. For the same molecule, the “potentiation of antibacterial activity in the presence of bicarbonate, on average” value (Gram-negative organisms) was 40 fold, the “reduction in CFU/mL compared to vehicle-treated mice” value (A. baumannii [1]) was 4 log and the rescue of animals (A. baumannii [2]; 50 mg/kg pentamidine IP, single dose 2 h post-infection, in the absence of novobiocin) was 80%. For the same molecule, the “A. baumannii organ load (e.g., spleen) decrease” value (A. baumannii [2]; pentamidine alone) was “seven”, the “potentiation of antibacterial activity in the presence of bicarbonate, on average” value (Gram-positive organisms) was 50 fold and the “effect on membrane potential” value (E. coli MC1061) was “dissipated the membrane potential”. The “reduction in CFU/mL” value ([3]; 0.5% pentamidine topical, tissue collected 28 hr post-infection) was 5 log, the “effect of addition of bicarbonate (50 mM) on antibacterial efficacy in clearing an MRSA infection” value ([3]; topical 0.5% aqueous pentamidine solution with or without bicarbonate (50 mM)) was “increased the antibacterial efficacy” and the “interaction with sodium bicarbonate (checkerboard)” value (E. coli) was “synergistic interaction”.
